18 compounds from patent US5585382A, “Polycyclic and heterocyclic chromophores for bis-imide tumoricidals” (The DuPont Merck Pharmaceutical Company, priority 1995, dated 1996) can be followed below.

Test [1] has as its system Clone A human colon cancer cells. Put plainly: In vitro growth inhibition of Clone A cells (MTT, 72 hr). In kind it is cell-based. To be noted: read-out: Clone A IC50. On the procedure: (§1) The reagents for tissue culture were purchased from GIBCO (Grand Island, N.Y.). 5-Dimethylthiazol-2-yl)-2,5-diphenyl tetrazolium bromide (MTT) was purchased from Sigma Chemical Company (St. Louis, Mo.). All agents were prepared as 2 mg/ml stock solutions in DMSO. MTT was prepared as a 1 mg/ml stock solution in Dulbecco's phosphate buffered saline (PBS). All stocks were stored frozen in the dark at -20° C.
(§2) Clone A human colon cancer cells were isolated from the heterogeneous DLD-1 colon tumor line and maintained as previously described (Dexter, D. L.; Barbosa, J. A.; Calabresi, P. Cancer Research 1979, 39, 1020; Dexter, D. L.; Spremulli, E. M.; Fligiel, A.; Barbosa, J. A.; Vogel, R.; Van Vorhees, A.; Calabresi, P. Am. J. Med. 1981, 71, 949.). Murine leukemia L1210 cells were maintained in RPMI-L medium as described (Chen, S.-F.; Ruben, R. L.; Dexter, D. L. Cancer Research 1986, 46, 5014.). All cell lines were incubated at 37° C. in a humidified atmosphere of 5% CO2 -95% air.
(§3) Exponentially growing L1210 cells (1×10^3), or Clone A cells (8×10^2) in 0.1 ml medium were seeded in a 96-well microtiter plate on day 0. On day one, 0.1 ml aliquots of medium containing graded concentrations of test compounds were added to the cell plates. After incubation at 37° C. in a humidified incubator for 72 hr, the plates containing L1210 cells were centrifuged briefly and 100 μl of the growth medium was removed. Cell cultures were incubated with 50 μl of MTT for 4 h at 37° C. (12). The resulting purple formazan precipitate was solubilized with 200 μl of 0.04 N HCl in isopropyl alcohol. Absorbance was read in a Titertek Multiskan MCC scanning well spectrophotometer (Flow Laboratories) at a test wavelength of 570 nm and a reference wavelength of 630 nm. The absorbances were stored on a floppy disk on an IBM-XT and uploaded onto a VAX computer. IC50 values were determined by a computer program that fit the data to the following equation:
(§4) Y=((Am -Ao)/(1+(X/IC50)^n))+Ao
(§5) where Am =absorbance of the control cells; Ao =absorbance of the cells in the presence of highest compound concentration; Y=observed absorbance; X=compound concentration; IC50 =dose of compound that inhibits the number of population doublings of cells to one half that of the number of population doublings of the control cells; and n equals the slope of the straight portion of the curve.
(§6) The values reported in the table are from at least one experiment performed in eight replicates. If more than one experiment was performed, the number reported is the average of all the trials

The test system of test [2] is Murine leukemia L1210 cells. The test is described as follows: In vitro growth inhibition of L1210 cells (MTT, 72 hr). The class given is cell-based. To be noted: Mus musculus, read-out: L1210 IC50. On the procedure: as §1, §2, §3, §4, §5, §6

The structures appear in SMILES notation. Converted amounts (≈) assume the structure as drawn. Where two headings read alike, the source gives them in different places.

Usually IC50 stands for the midpoint of a concentration-inhibition curve.

Regarding `O=C1c2cc([N+](=O)[O-])cc3c2c(cc2cnccc23)C(=O)N1CCCCNCCCN1C(=O)c2cc([N+](=O)[O-])cc3c2c(cc2cnccc23)C1=O` [Example 16, 4-[3-(3-Nitro-7-azaphenanthrene-1,10-dicarboximido)propylamino]-1-(3-nitro-7-azaphenanthrene-1, 10-dicarboximido)butane 2.6-Hydromethanesulfonate], the IC50 in test [1] (72 h) was 0.002 µg/mL (≈ 0.00287 µM); in test [2] (L1210, 72 h) it was under 0.01 µg/mL.
The like results for `O=C1c2cccc3c2c(c(-c2ccccc2)c2ccccc23)C(=O)N1CCCCNCCCN1C(=O)c2cccc3c2c(c(-c2ccccc2)c2ccccc23)C1=O` [Example 48, 4-[3-(9-Phenylphenanthrene-1,10-dicarboximido)propylamino]-1-(9-phenylphenanthrene-1, 10-docarboximido)butane Hydromethanesulfonate] were, in that order, 1.46 µg/mL and 0.773 µg/mL.
The like results for `CS(=O)(=O)O.CS(=O)(=O)O.C[C@@H](CNCCNC[C@H](C)N1C(=O)c2cccc3c2c(cc2ccc([N+](=O)[O-])cc23)C1=O)N1C(=O)c2cccc3c2c(cc2ccc([N+](=O)[O-])cc23)C1=O` [Example 52, (S,S)-1,2-bis-[2-(6-Nitrophenanthrene-1,10-dicarboximido)propylamino]ethane Dihydromethanesulfonate] were, in that order, 0.044 µg/mL and 0.082 µg/mL.
The corresponding values for `CS(=O)(=O)O.O=C1c2cccc3c2c(cc2cc([N+](=O)[O-])cnc23)C(=O)N1CCCCNCCCN1C(=O)c2cccc3c2c(cc2cc([N+](=O)[O-])cnc23)C1=O` [Example 11, 4-[3-(7-Nitro-5-azaphenanthrene-1,10dicarboximido)propylamino]-1-(7-nitro-5-azaphenanthrene-1, 10-dicarboximido)butane Hydromethanesulfonate] are 0.543 µg/mL and 0.171 µg/mL.
For the compound `CS(=O)(=O)O.N#Cc1ccc2cc3c4c(cccc4c2c1)C(=O)N(CCCCNCCCN1C(=O)c2cccc4c2c(cc2ccc(C#N)cc24)C1=O)C3=O` [Example 49, 4-[3-(6-Cyanophenanthrene-1,10-dicarboximido)propylamino]-1-(6-cyanophenanthrene-1, 10-dicarboximido)butane Hydromethanesulfonate], the half-inhibitory concentration (IC50) was found to be 0.007 µg/mL in test [1] (72 h) and 0.026 µg/mL in test [2] (L1210, 72 h).
The like results for `CS(=O)(=O)O.O=C1c2cc([N+](=O)[O-])cc3c2c(cc2ccccc23)C(=O)N1CCCCNCCCN1C(=O)c2cc([N+](=O)[O-])cc3c2c(cc2ccccc23)C1=O` [Example 50, 4-[3-(3-Nitrophenanthrene-1,10-dicarboximido)propylamino]-1-(3-nitrophenanthrene-1, 10-dicarboximido)butane Hydromethanesulfonate] were, in that order, 0.032 µg/mL and 0.126 µg/mL.
For `CS(=O)(=O)O.CS(=O)(=O)O.C[C@H](CNCCNC[C@@H](C)N1C(=O)c2cccc3c2c(cc2cnccc23)C1=O)N1C(=O)c2cccc3cc([N+](=O)[O-])cc(c23)C1=O` [Example 113, (R,R)-1-[2-(7-Azaphenanthrene-1,10-dicarboximido)propylamino]-2-[2-(3-nitronaphthalene-1,8-dicarboximido)propylamino]ethane Dihydromethanesulfonate], the IC50 was found to be 0.0003 µg/mL in test [1] (Clone A cells, 72 hr, MTT) and 0.008 µg/mL in test [2] (L1210 cells, 72 hr, MTT).
With `CS(=O)(=O)O.CS(=O)(=O)O.CS(=O)(=O)O.Nc1cc2c3c(cc4ccccc4c3c1)C(=O)N(CCCCNCCCN1C(=O)c3cc(N)cc4c3c(cc3ccccc34)C1=O)C2=O` [Example 53, 4-[3-(3-Aminophenanthrene-1,10-dicarboximido)propylamino]-1-(3-aminophenanthrene-1,10-dicarboximido)butane Trihydromethanesulfonate], the IC50 in test [1] (72 h) was 0.755 µg/mL; in test [2] (L1210, 72 h) it was 0.453 µg/mL.
The like results for `CS(=O)(=O)O.CS(=O)(=O)O.C[C@H](CNCCNC[C@@H](C)N1C(=O)c2cc([N+](=O)[O-])cc3c2c(cc2ncccc23)C1=O)N1C(=O)c2cccc3cc([N+](=O)[O-])cc(c23)C1=O` [Example 116, (R,R)-1-[2-(3-Nitro-8-azaphenanthrene-1,10-dicarboximido)propylamino]-2-[2-(3-nitronaphthalene-1,8-dicarboximido)propylamino]ethane Dihydromethanesulfonate] were, in that order, 0.003 µg/mL and 0.012 µg/mL.
With `COc1cc2cc3c4c(cccc4c2cc1OC)C(=O)N(CCCCNCCCN1C(=O)c2cccc4c2c(cc2cc(OC)c(OC)cc24)C1=O)C3=O.CS(=O)(=O)O` [Example 55, 4-[3-(6,7-Dimethoxyphenanthrene-1,10-dicarboximido)propylamino]-1-(6,7-dimethoxyphenanthrene-1,10-dicarboximido)butane Hydromethanesulfonate], the IC50 in test [1] (72 h) was found to be 5.43 µg/mL; in test [2] (L1210, 72 h), 0.356 µg/mL.
Turning to `CS(=O)(=O)O.Cc1ccc2cc3c4c(cccc4c2c1)C(=O)N(CCCCNCCCN1C(=O)c2cccc4c2c(cc2ccc(C)cc24)C1=O)C3=O` [Example 41, 4-[3-(6-Methylphenanthrene-1,10-dicarboximido)propylamino]-1-(6-methylphenanthrene-1, 10-dicarboximido)butane Hydromethanesulfonate], the IC50 in test [1] (72 h) was 0.804 µg/mL; in test [2] (L1210, 72 h) it was 0.317 µg/mL.
`CS(=O)(=O)O.CS(=O)(=O)O.C[C@H](CNCCNC[C@@H](C)N1C(=O)c2cccc3c4c(cc(c23)C1=O)C(=O)c1ccccc1C4=O)N1C(=O)c2cccc3c4c(cc(c23)C1=O)C(=O)c1ccccc1C4=O` [Example 101, (R,R)-1,2-bis-[2-(7,12-Dihydro-7,12-dioxobenz[a]anthracene-4,5-dicarboximido)propylamino]ethane Dihydromethanesulfonate]: the IC50 was found to be 0.05 µg/mL in test [1] (Clone A cells, 72 hr, MTT) and 0.105 µg/mL in test [2] (L1210 cells, 72 hr, MTT).
With `C[C@H](CNCCNC[C@@H](C)N1C(=O)c2cccc3c2c(cc2ccc(F)cc23)C1=O)N1C(=O)c2cccc3cc([N+](=O)[O-])cc(c23)C1=O` [Example 120], the IC50 in test [1] (72 h) is 0.013 µg/mL (≈ 0.0201 µM); in test [2] (L1210, 72 h), 0.261 µg/mL (≈ 0.403 µM).
Regarding `CS(=O)(=O)O.O=C1c2cccc3c2c(cc2cccc([N+](=O)[O-])c23)C(=O)N1CCCCNCCCN1C(=O)c2cccc3c2c(cc2cccc([N+](=O)[O-])c23)C1=O` [Example 51, 4-[3-(5-Nitrophenanthrene-1,10-dicarboximido)propylamino]-1-(5-nitrophenanthrene-1, 10-dicarboximido)butane Hydromethanesulfonate], the half-inhibitory concentration (IC50) was determined as 0.747 µg/mL in test [1] (72 h) and 0.205 µg/mL in test [2] (L1210, 72 h).
For the compound `CS(=O)(=O)O.CS(=O)(=O)O.C[C@H](CNCCNC[C@@H](C)N1C(=O)c2cccc3c2c(cc2cccnc23)C1=O)N1C(=O)c2cccc3cc([N+](=O)[O-])cc(c23)C1=O` [Example 110, (R,R)-1-[2-(5-Azaphenanthrene-1,10-dicarboximido)propylamino]-2-[2-(3-nitronaphthalene-1,8-dicarboximido)propylamino]ethane Dihydromethanesulfonate], the IC50 in test [1] (Clone A cells, 72 hr, MTT) is 0.006 µg/mL; in test [2] (L1210 cells, 72 hr, MTT), 0.183 µg/mL.
The like results for `CS(=O)(=O)O.CS(=O)(=O)O.Cc1nc2cc3c4c(cccc4c2s1)C(=O)N([C@H](C)CNCCNC[C@@H](C)N1C(=O)c2cccc4c2c(cc2nc(C)sc24)C1=O)C3=O` [Example 83, (R,R) -1,2-bis-[2-(2-Methylnaphtho[2,1-d]thiazole-5,6-dicarboximido)propylamino]ethane Dihydromethanesulfonate] were, in that order, 0.004 µg/mL and under 0.01 µg/mL.
`CS(=O)(=O)O.O=C1c2cccc3c2c(cc2occc23)C(=O)N1CCCCNCCCN1C(=O)c2cccc3c2c(cc2occc23)C1=O` [Example 90, 4-[3-(Naphtho[2,1-b]furan-5,6-dicarboximido)propylamino]-1-(naphtho[2,1-b]furan-5,6-dicarboximido)butane Hydromethanesulfonate]: the IC50 is 0.017 µg/mL in test [1] (Clone A cells, 72 hr, MTT) and 0.013 µg/mL in test [2] (L1210 cells, 72 hr, MTT).
On to `C[C@H](CNCCNC[C@@H](C)N1C(=O)c2cc([N+](=O)[O-])cc3c2c(cc2ccncc23)C1=O)N1C(=O)c2cccc3cc([N+](=O)[O-])cc(c23)C1=O` [Example 119, (R,R)-1-[3-Nitro-6-azaphenanthrene-1, 10-dicarboximido)propylamino]-2-[2-(3-nitronaphthalene-1,8-dicarboximido)propylamino]ethane Dihydromethanesulfonate], for which the IC50 was found to be 0.003 µg/mL in test [1] (72 h) and 0.044 µg/mL in test [2] (L1210, 72 h).
